# Source: patent US20260297037A1, “COMPOUND COMPRISING N-METHYLPIPERAZINE ETHANOL CARBAMATE STRUCTURE AND USE THEREOF” (KOREA INSTITUTE OF RADIOLOGICAL & MEDICAL SCIENCES, priority 2023, published 2026)
# Experiments:
# Type in all cases: in vivo, C57BL/6 mice
# [1] = test system: radiation-induced pulmonary fibrosis (RIPF); assay: Inhibitory effect on radiation-induced pulmonary fibrosis, Micro-CT imaging; conditions: SBRT 90 Gy, 2 weeks after radiation exposure; for degree of fibrosis by Micro-CT imaging: vs untreated
# Experimental: (§1) One hour before stereotactic body radiation therapy (SBRT; 90 Gy, 4 mm collimator), DCTP and nintedanib, an FDA-approved drug known to inhibit pulmonary fibrosis, were orally administered to seven-week-old male C57BL/6 mice. The degree of pulmonary fibrosis and the inhibitory effect on radiation-induced lung injury were observed two weeks after radiation exposure.
# (§2) The DCTP drug was administered at a dose of 30 mg/kg, and nintedanib was administered once daily (o.d.) at a dose of 60 mg/kg.
# as §1, with “prior to” for “before”, “PXDP” for “DCTP”
# (§3) The PXDP drug was administered at a dose of 100 mg/kg, and nintedanib was administered once daily (o.d.) at a dose of 60 mg/kg. To analyze the degree of inflammatory response and the degree of fibrosis 2 weeks after radiation exposure, H&E staining and Masson's Trichrome staining were performed, and the results are shown in FIG. 11.
# [2] = test system: idiopathic pulmonary fibrosis induced by bleomycin; assay: Inhibitory effect on idiopathic pulmonary fibrosis induced by bleomycin, Micro-CT imaging; conditions: bleomycin 1.5 U/kg, nintedanib 60 mg/kg, oral once daily for two weeks from day 14, 4 weeks after bleomycin, vs untreated
# Experimental: (§4) Each drug was administered starting 14 days after the administration of bleomycin. The drug was orally administered at a dose of 20 mg/kg once daily for two weeks (a total of 13 administrations). The control drug, nintedanib, was administered at a dose of 60 mg/kg, and the co-administration group was orally administered nintedanib (60 mg/kg) together with DCTP (20 mg/kg) once daily for two weeks (a total of 13 administrations).
# (§5) Each drug was administered starting 14 days after the administration of bleomycin. Nintedanib and PXDP were each orally administered at a dose of 60 mg/kg once daily for two weeks (a total of 13 administrations), and the group treated with the combination was orally administered nintedanib (60 mg/kg) together with PXDP (60 mg/kg) once daily for two weeks (a total of 13 administrations).
# [3] = test system: idiopathic pulmonary fibrosis induced by bleomycin; assay: Degree of inflammation and fibrosis, H&E and Masson's Trichrome staining, bleomycin-induced idiopathic pulmonary fibrosis; conditions: bleomycin 1.5 U/kg, nintedanib 60 mg/kg, oral once daily for two weeks from day 14, vs untreated
# Experimental: as §4
# The results of H&E and Masson's Trichrome staining performed to evaluate the degree of inflammation and fibrosis are shown in FIG. 3.
# as §5
# The results of H&E and Masson's Trichrome staining performed to evaluate the degree of inflammation and fibrosis are shown in FIG. 8.
# [4] = test system: radiation-induced pulmonary fibrosis (RIPF); assay: Degree of inflammation and fibrosis, H&E and Masson's Trichrome staining, radiation-induced pulmonary fibrosis; conditions: SBRT 90 Gy, nintedanib 60 mg/kg, oral, 2 weeks after radiation exposure, vs untreated
# Experimental: as §1, §2
# In addition, to analyze the degree of inflammatory response and the degree of fibrosis two weeks after radiation exposure, H&E staining and Masson's Trichrome staining were performed, and the results are shown in FIG. 5.
# as §1, with “prior to” for “before”, “PXDP” for “DCTP”
# as §3
# [5] = Example 6, FIG. 10, PXDP 100 mg/kg, nintedanib 60 mg/kg, oral
# [6] = Example 5, FIG. 7, PXDP 60 mg/kg
# [7] = Example 5, FIG. 8, PXDP 60 mg/kg
# [8] = Example 3, FIG. 5, DCTP 30 mg/kg
# [9] = Example 6, FIG. 11, PXDP 100 mg/kg
SMILES,"degree of fibrosis by Micro-CT imaging ([1]; Example 3, FIG. 4, nintedanib 60 mg/kg oral once daily)","degree of fibrosis by Micro-CT imaging [1, 5]","degree of fibrosis by Micro-CT imaging ([2]; Example 2, FIG. 2, DCTP 20 mg/kg)","degree of fibrosis by Micro-CT imaging [2, 6]","degree of inflammation and fibrosis by H&E and Masson's Trichrome staining ([3]; Example 2, FIG. 3, DCTP 20 mg/kg)","degree of inflammation and fibrosis by H&E and Masson's Trichrome staining [3, 7]","degree of inflammation and fibrosis by H&E and Masson's Trichrome staining [4, 8]","degree of inflammation and fibrosis by H&E and Masson's Trichrome staining [4, 9]","effect compared with nintedanib (Micro-CT imaging) ([1]; Example 6, FIG. 10, PXDP 100 mg/kg vs nintedanib 60 mg/kg, oral)"
COC(=O)c1ccc2c(c1)NC(=O)/C2=C(\Nc1ccc(N(C)C(=O)CN2CCN(C)CC2)cc1)c1ccccc1 [nintedanib],reduction in the degree of fibrosis,reduction in the degree of fibrosis,reduction in the degree of fibrosis,reduction in the degree of fibrosis,alleviation of pulmonary fibrosis and inflammation,alleviation of pulmonary fibrosis and inflammation,reduction in fibrosis and inflammation in the lungs,alleviation of fibrosis and inflammation in the lungs,–
"CN1CCN(CCOC(=O)N(Cc2ccc(C(F)(F)F)nc2)c2ccc(Cc3c[nH]c4ncc(Cl)cc34)cn2)CC1 [PXDP, 2-(4-methylpiperazin-1-yl)ethyl (5-((5-chloro-1H-pyrrolo[2,3-b]pyridin-3-yl)methyl)pyridin-2-yl)((6-(trifluoromethyl)pyridin-3-yl)methyl) carbamate]",–,reduction in the degree of fibrosis,–,reduction in the degree of fibrosis,–,alleviation of pulmonary fibrosis and inflammation,–,alleviation of fibrosis and inflammation in the lungs,superior to that of nintedanib
"COc1cc2ncnc(N(C(=O)OCCN3CCN(C)CC3)c3ccc(F)c(Cl)c3)c2cc1NC(=O)/C=C/CN1CCCCC1 [DCTP, 2-(4-methylpiperazin-1-yl)ethyl (E)-(3-chloro-4-fluorophenyl) (7-methoxy-6-(4-(piperidin-1-yl)but-2-enamido)quinazolin-4-yl) carbamate]",–,–,–,–,–,–,reduction in fibrosis and inflammation in the lungs,–,–
